This is an account of results in patent US20240228482A1, “COMPOUNDS, COMPOSITIONS AND METHODS OF TREATING CANCER” (HOTSPOT THERAPEUTICS, INC., priority 2021, published 2024).

For the first assay, the target named is T1, CBL-B (Homo sapiens, UniProt Q13191).
T1 construct: GST
T1 sequence (Q13191 whole entry): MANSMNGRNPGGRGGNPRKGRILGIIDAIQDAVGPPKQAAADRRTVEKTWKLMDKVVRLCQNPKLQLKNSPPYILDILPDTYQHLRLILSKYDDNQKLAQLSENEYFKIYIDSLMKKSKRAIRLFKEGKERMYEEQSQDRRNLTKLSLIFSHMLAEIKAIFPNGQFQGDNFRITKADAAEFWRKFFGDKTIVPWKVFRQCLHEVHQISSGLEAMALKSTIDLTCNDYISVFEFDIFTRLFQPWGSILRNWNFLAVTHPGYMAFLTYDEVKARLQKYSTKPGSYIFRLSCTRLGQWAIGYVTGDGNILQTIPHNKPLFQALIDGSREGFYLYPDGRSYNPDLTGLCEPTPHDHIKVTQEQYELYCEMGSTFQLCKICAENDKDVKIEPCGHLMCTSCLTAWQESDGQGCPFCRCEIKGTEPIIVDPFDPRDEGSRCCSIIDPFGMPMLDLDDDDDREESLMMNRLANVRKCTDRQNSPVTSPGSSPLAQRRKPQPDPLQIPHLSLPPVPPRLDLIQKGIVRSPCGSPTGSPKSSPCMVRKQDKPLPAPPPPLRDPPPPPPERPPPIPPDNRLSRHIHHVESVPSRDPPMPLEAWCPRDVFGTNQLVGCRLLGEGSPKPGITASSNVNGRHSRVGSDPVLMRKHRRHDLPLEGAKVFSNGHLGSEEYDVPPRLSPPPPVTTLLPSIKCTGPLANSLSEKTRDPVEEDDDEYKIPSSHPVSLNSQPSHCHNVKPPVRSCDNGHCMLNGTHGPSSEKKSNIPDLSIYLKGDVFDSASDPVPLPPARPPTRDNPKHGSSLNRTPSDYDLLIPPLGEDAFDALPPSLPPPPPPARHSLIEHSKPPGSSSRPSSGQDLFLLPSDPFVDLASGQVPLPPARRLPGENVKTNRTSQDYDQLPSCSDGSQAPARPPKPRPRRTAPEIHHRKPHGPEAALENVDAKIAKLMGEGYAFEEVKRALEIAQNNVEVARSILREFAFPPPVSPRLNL
The assay is described as follows: CBL-B TR-FRET IC50 screening (E1/E2 ubiquitination, Biotin-Ubiquitin, Anti GST-Tb donor / Streptavidin-d2 acceptor). The class given is biochemical. Conditions: Updated Activity, second part of Table 2 (head 'Patent Cmpd No / Updated Activity'); same CBL-B TR-FRET IC50 bins A-F.
The compound `C[C@H]1CCCN(Cc2cc(C(F)(F)F)c3cn(-c4cccc(C5(c6nncn6C)CC(C)(C)C5)c4)c(=O)n3c2)C1` [Compound 433] registered an IC50 of less than 100 nM.

Still in this assay, the particulars now being: second part of Table 2 (head 'Patent Cmpd No / Updated Activity'); same CBL-B TR-FRET IC50 bins A-F; read-out: Updated Activity.
For `C[C@H]1CCCN(Cc2cc(C(F)(F)F)c3cn(-c4cccc(Cc5cccnn5)c4)c(=O)n3c2)C1` [Compound 431], the IC50 was more than 10000 nM.
On the same count and under the same terms, under `C[C@@H]1CN(Cc2cc(C(F)(F)F)c3cn(-c4cccc(C5(c6nncn6C)CCC5)c4)c(=O)n3c2)CCO1` [Compound 432] stands more than 10000 nM; under `CC(=O)N1CC([C@@H](c2cccc(-n3cc4c(C(F)(F)F)cc(CN5CCC[C@H](C)C5)cn4c3=O)c2)c2nncn2C)C1` [Compound 434_P1], more than 10000 nM.
Still for that read-out and setting: in the case of `CC(=O)N1CC([C@H](c2cccc(-n3cc4c(C(F)(F)F)cc(CN5CCC[C@H](C)C5)cn4c3=O)c2)c2nncn2C)C1` [Compound 434_P2] it was 1000 to 3000 nM; in that of `C[C@@H]1C[C@H](C)CN(Cc2cc(C(F)(F)F)c3cn(-c4cccc([C@H](c5nncn5C)C5CCC5)c4)c(=O)n3c2)C1` [Compound 449], less than 100 nM.
`Cn1cnnc1C1(c2cccc(-n3cc4c(C(F)(F)F)cc(CN5CCC6(CC6)C5)cn4c3=O)c2)CCC1` [Compound 450]: the IC50 is less than 100 nM.
Still for that read-out and setting: under `Cn1cnnc1C1(c2cccc(-n3cc4c(C(F)(F)F)cc(CN5CC6(CC6)C5)cn4c3=O)c2)CCC1` [Compound 451] stands less than 100 nM; under `C[C@H]1CCCN(Cc2cc(C(F)(F)F)c3cn(-c4cccc(C(=C5CCC5)c5nncn5C)c4)c(=O)n3c2)C1` [Compound 466], less than 100 nM; under `Cn1cnnc1[C@@H](c1cccc(-n2cc3c(C(F)(F)F)cc(CN4CCCOC4=O)cn3c2=O)c1)C1CCC1` [Compound 467], less than 100 nM.
Same read-out and setting: in the case of `Cn1cnnc1[C@@H](c1cccc(-n2cc3c(C(F)(F)F)cc(CN4CCOC4=O)cn3c2=O)c1)C1CCC1` [Compound 468] it was less than 100 nM; in that of `COC(=O)N(C)Cc1cc(C(F)(F)F)c2cn(-c3cccc([C@H](c4nncn4C)C4CCC4)c3)c(=O)n2c1` [Compound 469], less than 100 nM; in that of `C[C@H]1CCCN(Cc2cc(C(F)(F)F)c3cn(-c4cccc([C@H](c5nncn5C)C5CN(C)C5)c4)c(=O)n3c2)C1` [Compound 470_P1], more than 10000 nM.
In the case of `C[C@H]1CCCN(Cc2cc(C(F)(F)F)c3cn(-c4cccc([C@@H](c5nncn5C)C5CN(C)C5)c4)c(=O)n3c2)C1` [Compound 470_P2], the IC50 is more than 10000 nM.
Same read-out and setting: in the case of `Cn1cnnc1C1(c2cccc(-n3cc4c(C(F)(F)F)cc(CN5CCC(C)(F)CC5)cn4c3=O)c2)CCC1` [Compound 471] it was less than 100 nM.
The same measure, in the same setting: in the case of `C[C@H]1CCCN(Cc2cc(C(F)(F)F)c3cn(-c4cccc([C@@H](c5nncn5C)C5CC5)c4)c(=O)n3c2)C1` [Compound 472_P1] it was 100 to 300 nM; in that of `C[C@H]1CCCN(Cc2cc(C(F)(F)F)c3cn(-c4cccc([C@H](c5nncn5C)C5CC5)c4)c(=O)n3c2)C1` [Compound 472_P2], less than 100 nM; in that of `Cn1cnnc1C1(c2cccc(-n3cc4c(C(F)(F)F)cc(CN5CCc6ncsc6C5)cn4c3=O)c2)CCC1` [Compound 473], less than 100 nM.
For `CN1CCCN(Cc2cc(C(F)(F)F)c3cn(-c4cccc([C@H](c5nncn5C)C5CCC5)c4)c(=O)n3c2)C1=O` [Compound 482], the IC50 is less than 100 nM.
Same read-out and setting: in the case of `CN1CCN(Cc2cc(C(F)(F)F)c3cn(-c4cccc([C@H](c5nncn5C)C5CCC5)c4)c(=O)n3c2)C1=O` [Compound 483] it was less than 100 nM; in that of `CN(C)C(=O)N(C)Cc1cc(C(F)(F)F)c2cn(-c3cccc([C@H](c4nncn4C)C4CCC4)c3)c(=O)n2c1` [Compound 484], less than 100 nM; in that of `[2H]C([2H])(c1cc(C(F)(F)F)c2cn(-c3cccc([C@H](c4nncn4C)C4CCC4)c3)c(=O)n2c1)N1CCC[C@H](C)C1` [Compound 487], less than 100 nM.
On to `C[C@H]1COCCN1Cc1cc(C(F)(F)F)c2cn(-c3cccc([C@H](c4nncn4C)C4CCC4)c3)c(=O)n2c1` [Compound 488], for which the IC50 was less than 100 nM.
Same read-out and setting: under `C[C@@H]1COCCN1Cc1cc(C(F)(F)F)c2cn(-c3cccc([C@H](c4nncn4C)C4CCC4)c3)c(=O)n2c1` [Compound 489] stands less than 100 nM; under `[2H]C([2H])(c1cc(C(F)(F)F)c2cn(-c3cccc(C4(Cc5nncn5C)COC4)c3)c(=O)n2c1)N1CCC[C@H](C)C1` [Compound 490], less than 100 nM; under `C[C@@H]1CCCN(Cc2cc(C(F)(F)F)c3cn(-c4cccc([C@H](c5nncn5C)C5CCC5)c4)c(=O)n3c2)C1` [Compound 491], less than 100 nM.
On the same count and under the same terms, under `CN1C(=O)CCN1Cc1cc(C(F)(F)F)c2cn(-c3cccc([C@H](c4nncn4C)C4CCC4)c3)c(=O)n2c1` [Compound 498] stands less than 100 nM; under `Cn1cnnc1CC1(c2cccc(-n3cc4c(C(F)(F)F)cc(CN5CCC(OCCN)CC5)cn4c3=O)c2)COC1` [Compound 499], less than 100 nM; under `COCCn1ccnc1-c1cc(C(F)(F)F)c2cn(-c3cccc([C@H](c4nncn4C)C4CCC4)c3)c(=O)n2c1` [Compound 502], less than 100 nM.
Still for that read-out and setting: under `Cn1cnnc1[C@@H](c1cccc(-n2cc3c(C(F)(F)F)cc(CN4CCC5(CC4)CC5)cn3c2=O)c1)C1CCC1` [Compound 503] stands less than 100 nM.
On to `[2H]C([2H])(c1cc(C(F)(F)F)c2cn(-c3cccc([C@H](c4nncn4C)C4CCC4)c3)c(=O)n2c1)N1CC2(CC2)C1` [Compound 504], for which the IC50 was less than 100 nM.
Same read-out and setting: under `[2H]C([2H])(c1cc(C(F)(F)F)c2cn(-c3cccc([C@H](c4nncn4C)C4CCC4)c3)c(=O)n2c1)N1CCC2(CC2)C1` [Compound 505] stands less than 100 nM; under `C[C@H]1CCCN([C@H](C)c2cc(C(F)(F)F)c3cn(-c4cccc(C5(c6nncn6C)CCC5)c4)c(=O)n3c2)C1` [Compound 506_P1], less than 100 nM; under `C[C@H]1CCCN([C@@H](C)c2cc(C(F)(F)F)c3cn(-c4cccc(C5(c6nncn6C)CCC5)c4)c(=O)n3c2)C1` [Compound 506_P2], less than 100 nM.
The same measure, in the same setting: in the case of `COC[C@@H]1CCN1Cc1cc(C(F)(F)F)c2cn(-c3cccc([C@H](c4nncn4C)C4CCC4)c3)c(=O)n2c1` [Compound 507] it was less than 100 nM; in that of `CN(Cc1cc(C(F)(F)F)c2cn(-c3cccc([C@H](c4nncn4C)C4CCC4)c3)c(=O)n2c1)S(C)(=O)=O` [Compound 520], less than 100 nM; in that of `COC(=O)CN(C)Cc1cc(C(F)(F)F)c2cn(-c3cccc([C@H](c4nncn4C)C4CCC4)c3)c(=O)n2c1` [Compound 521], less than 100 nM.
Same read-out and setting: in the case of `CN(CC(=O)O)Cc1cc(C(F)(F)F)c2cn(-c3cccc([C@H](c4nncn4C)C4CCC4)c3)c(=O)n2c1` [Compound 522] it was less than 100 nM; in that of `CN1CCC2(CCN(Cc3cc(C(F)(F)F)c4cn(-c5cccc([C@H](c6nncn6C)C6CCC6)c5)c(=O)n4c3)CC2)C1=O` [Compound 523], less than 100 nM; in that of `Cn1cnnc1[C@@H](c1cccc(-n2cc3c(C(F)(F)F)cc(CN4CCC5(CCO5)CC4)cn3c2=O)c1)C1CCC1` [Compound 524], less than 100 nM.
`Cn1cnnc1[C@@H](c1cccc(-n2cc3c(C(F)(F)F)cc(CN4CCC5(CC4)COC5)cn3c2=O)c1)C1CCC1` [Compound 525]: the IC50 was less than 100 nM.
In the case of `[2H]C([2H])(c1cc(C(F)(F)F)c2cn(-c3cccc([C@H](c4nncn4C)C4CCC4)c3)c(=O)n2c1)N1CCC(C)(F)CC1` [Compound 526], the IC50 was less than 100 nM.
On the same count and under the same terms, in the case of `[2H]C([2H])(c1cc(C(F)(F)F)c2cn(-c3cccc([C@H](c4nncn4C)C4CCC4)c3)c(=O)n2c1)N1CCO[C@H](C)C1` [Compound 527] it was less than 100 nM.
Still for that read-out and setting: under `Cn1cnnc1[C@@H](c1cccc(-n2cc3c(C(F)(F)F)cc(CN4CCC5CC54)cn3c2=O)c1)C1CCC1` (stereo partly drawn) [Compound 528] stands less than 100 nM; under `Cn1cnnc1[C@H](c1cc(-c2cnn[nH]2)cc(-n2cc3c(C(F)(F)F)cccn3c2=O)c1)C1CCC1` [Compound 535], 301 to 1000 nM; under `Cn1cnnc1[C@@H](c1cc(-c2cnn[nH]2)cc(-n2cc3c(C(F)(F)F)cccn3c2=O)c1)C1CCC1` [Compound 536], more than 10000 nM.
The same measure, in the same setting: in the case of `Cn1cnnc1[C@@H](c1cccc(-n2cc3c(C(F)(F)F)cc(CN4CCCS4(=O)=O)cn3c2=O)c1)C1CCC1` [Compound 541] it was less than 100 nM; in that of `Cn1cnnc1[C@@H](c1cccc(-n2cc3c(C(F)(F)F)cc(CN4CCNS4(=O)=O)cn3c2=O)c1)C1CCC1` [Compound 542], less than 100 nM; in that of `Cn1cnnc1[C@@H](c1cccc(-n2cc3c(C(F)(F)F)cc(CN4CCCCS4(=O)=O)cn3c2=O)c1)C1CCC1` [Compound 543], less than 100 nM.
As to `Cn1cnnc1[C@@H](c1cccc(-n2cc3c(C(F)(F)F)cc(CN4CCCNS4(=O)=O)cn3c2=O)c1)C1CCC1` [Compound 544], the IC50 is less than 100 nM.
Regarding `Cn1cnnc1[C@@H](c1cccc(-n2cc3c(C(F)(F)F)cc(CN4CCC5(CCOC5=O)CC4)cn3c2=O)c1)C1CCC1` [Compound 545], the IC50 was less than 100 nM.
In the case of `[2H]C([2H])(c1cc(C(F)(F)F)c2cn(-c3cccc([C@H](c4nncn4C)C4COC4)c3)c(=O)n2c1)N1CCC[C@H](C)C1` [Compound 546], the IC50 was less than 100 nM.
Same read-out and setting: in the case of `C[C@@H]1CCN1Cc1cc(C(F)(F)F)c2cn(-c3cccc([C@H](c4nncn4C)C4CCC4)c3)c(=O)n2c1` [Compound 547] it was less than 100 nM.
The same measure, in the same setting: in the case of `COC[C@H]1CCN1Cc1cc(C(F)(F)F)c2cn(-c3cccc([C@H](c4nncn4C)C4CCC4)c3)c(=O)n2c1` [Compound 548] it was less than 100 nM; in that of `Cn1cnnc1[C@@H](c1cccc(-n2cc3c(C(F)(F)F)cc(CN4CC(C#N)C4)cn3c2=O)c1)C1CCC1` [Compound 549], less than 100 nM; in that of `C[C@H]1CCCN(Cc2cc(C(F)(F)F)c3cn(-c4csc([C@@H](c5nncn5C)C5CCC5)c4)c(=O)n3c2)C1` [Compound 550_P1], less than 100 nM.
The same measure, in the same setting: under `C[C@H]1CCCN(Cc2cc(C(F)(F)F)c3cn(-c4csc([C@H](c5nncn5C)C5CCC5)c4)c(=O)n3c2)C1` [Compound 550_P2] stands less than 100 nM.
